Source: ChEMBL document CHEMBL3351440, “Synthesis of diethylamino-curcumin mimics with substituted triazolyl groups and their sensitization effect of TRAIL against brain cancer cells” (2014)
Active and inactive are the calls of the source. The rule behind the calls is not given here.

Assays:
[1] = tested on: CRT-MG; assay: (§1) Induction of TRAIL-mediated human CRT-MG cell death at 10 uM after 24 hrs by LDH release assay relative to control; assay type: functional
[2] = Induction of apoptosis in human CRT-MG cells assessed as cell death at 10 uM after 24 hrs by LDH release assay; assay type: functional
[3] = as §1; assay type: functional
[4] = Induction of apoptosis in human CRT-MG cells assessed as inhibition of cell proliferation at 10 uM after 24 hrs; assay type: functional
[5] = tested on: CRT-MG; assay: (§2) Cytotoxicity against TRAIL-induced human CRT-MG cells at 50 uM after 24 hrs; assay type: functional
[6] = as §2; assay type: functional
[7] = Cytotoxicity against TRAIL-induced human U87MG cells assessed as cleavage of procaspase 3/8 at 10 uM after 48 hrs by MTS colorimetric assay; assay type: functional, U-87MG ATCC
[8] = Cytotoxicity against TRAIL-induced human U251MG cells assessed as cleavage of procaspase 3/8 at 10 uM after 48 hrs by MTS colorimetric assay; assay type: functional, U-251
[9] = tested on: LNCaP; assay: Cytotoxicity against TRAIL-induced human LNCAP cells assessed as caspase 3 activity at 10 uM after 48 hrs by MTS colorimetric assay relative to control; assay type: functional

With `CCCCCc1ccc(-c2cn(-c3cccc(C(=O)/C=C/c4ccc(N(CC)CC)cc4)c3)nn2)cc1` the Activity [1] was “Active” and the Activity [2] was <20%.
With `C=C(C)c1cn(-c2cccc(C(=O)/C=C/c3ccc(N(CC)CC)cc3)c2)nn1` the Activity [1] was “Active” and the Activity [2] was <20%.
Compound `CCN(CC)c1ccc(/C=C/C(=O)c2cccc(N=[N+]=[N-])c2)cc1` has an Activity [3] of 78.3%, an Activity [2] of 27.8% and an inhibition at 10 µM [4] of 55.6%.
For `CCN(CC)c1ccc(/C=C/C(=O)c2cccc(-n3cc(-c4cc(F)cc(F)c4)nn3)c2)cc1`, the Activity [2] was <20%.
For `CCN(CC)c1ccc(/C=C/C(=O)c2cccc(-n3cc(-c4ccccc4)nn3)c2)cc1`, the “fold change (FC)” value [3] was 2.5, the Activity [5] was “Active” and the Activity [2] was 14.3%.
In the case of `CCN(CC)c1ccc(/C=C/C(=O)c2cccc(-n3cc(-c4ccc(Br)cc4)nn3)c2)cc1`, the Activity [1] is reported as “Active” and the Activity [6] is reported as <20%.
With `CCN(CC)c1ccc(/C=C/C(=O)c2cccc(-n3cc(-c4ccc(C)cc4)nn3)c2)cc1` the Activity [1] was “Active” and the Activity [2] was <20%.
In the case of `COc1cc(/C=C/C(=O)CC(=O)/C=C/c2ccc(O)c(OC)c2)ccc1O` [CURCUMIN], the Activity [7] is reported as 45%, the Activity [8] is reported as 60% and the Ratio [9] is reported as 2.
With `CCN(CC)c1ccc(/C=C/C(=O)c2cccc(-n3cc(-c4ccc(F)cc4)nn3)c2)cc1` the Activity [1] was “Active” and the Activity [2] was <20%.
For `CCN(CC)c1ccc(/C=C/C(=O)c2cccc(-n3cc(C(C)(C)O)nn3)c2)cc1`, the “fold change (FC)” value [3] was 2.5, the Activity [6] was <20% and the Activity [2] was 13.3%.
With `CCN(CC)c1ccc(/C=C/C(=O)c2cccc(-n3cc(-c4ccc(OC)cc4)nn3)c2)cc1` the Activity [1] was “Active” and the Activity [2] was <20%.
In the case of `CCN(CC)c1ccc(/C=C/C(=O)c2cccc(-n3cc(-c4ccccc4C(F)(F)F)nn3)c2)cc1`, the Activity [1] is reported as “Active”, the Activity [5] is reported as “Active” and the Activity [2] is reported as <20%.
With `CCN(CC)c1ccc(/C=C/C(=O)c2cccc(-n3cc(-c4cccc(Cl)c4)nn3)c2)cc1` the Activity [1] was “Active” and the Activity [2] was <20%.
